Experimental data as given in PMC10482942, “Novel quinazoline-1,2,3-triazole hybrids with anticancer and MET kinase targeting properties” (Scientific Reports, 2023).

Experiments:
[1] = tested on: AsPC-1 cells; test: Apoptosis induction, annexin V-FITC/PI flow cytometry; assay type: cell-based, human; details: 10 μM, 48 h; for Late apoptosis: untreated 4.8%; for Early apoptosis: untreated 7.6%; for Percentage of total apoptosis: untreated 12.4%
Method: The ability of apoptosis induction of synthetic compounds was evaluated by FACS analysis with Annexin V-FITC/propidiuim iodide (PI) staining kit (BD Pharmingen, San Diego, CA, USA). AsPC-1 cells were cultured in 6-well plates at a density of 1 × 10^5 cells/ml. After 24 h, the synthesized derivatives at different concentrations were added and incubated for 48 h. After addition of trypsin to each well, the cells were harvested, transferred to 1.5 ml tubes and washed twice with PBS. At the final step, the cells were stained with Annexin V-FITC (5 µl) and PI (5 µl), followed by analysis by a FACS Calibur flow cytometer (Becton Dickinson, Mountain View, CA, USA). The effects of synthetic derivatives on the apoptosis rate were evaluated based on the fluorescence signal of 20,000 events.

[2] = target: T1, MTOR (h) (Homo sapiens, UniProt P42345); test: Radiometric kinase panel assay; assay type: biochemical; details: Km ATP
T1 construct: purchased Eurofins Discovery

[3] = tested on: MET phosphorylation in AsPC-1 cells; test: MET phosphorylation by western blot analysis; assay type: cell-based, human; details: 10 and 25 μM, 3 h
Method: The effect of synthetic compounds on MET phosphorylation in AsPC-1 cells was investigated by western blot analysis. At first, the AsPC-1 cells were seeded in 6-well plates at a density of 250,000 cells/ml and incubated at 37 °C for 24 h. The cultured cells were then treated with the synthetic compounds at different concentrations for 3 h. Then, the cells were harvested via addition of ice-cold RIPA lysis buffer (20 mM Tris base, 150 mM NaCl, 1% Np40, 1 mM EDTA, […] and 0.1% SDS, pH 8.0) containing […] (PMSF; SigmaAldrich), 10 mM Na4O7P2 and 2 mM Na3VO4 and by use of scrapers. Also, PMSF and a protease inhibitor cocktail (Roche) were added to the extraction buffer to prevent the breakdown of the proteins. […] Protein contents of the cell extracts were measured by a bicinchoninic acid protein assay kit (Quanti-Pro BCA, Sigma–Aldrich, St. Louis, USA) using bovine serum albumin as the protein standard. […] Proteins were then detected by incubation with specific primary antibodies, rabbit monoclonal anti-p-MET (dilution 1:1000, catalogue number: 3126, Cell Signaling, Danvers, MA), and rabbit monoclonal anti-MET (dilution 1:1000, catalogue number: 4560, Cell Signaling, Danvers, MA) overnight at 4 °C. […] The band intensities were calculated with the software Gene Tools (SyneGene, Cambridge, UK) for Windows.

[4] = target: T2, AKT1 (h) (Homo sapiens, UniProt P31749); test: Radiometric kinase panel assay; assay type: biochemical; details: Km ATP
T2 construct: purchased Eurofins Discovery

[5] = tested on: AsPC-1 spheroids; test: Three-dimensional spheroid growth inhibition, APH assay; assay type: cell-based, human; details: for Circularity and solidity of spheroids: AsPC-1 spheroids, after 72 h of treatment, ImageJ; for IC50: Homo sapiens, ASPC1, APH assay, 72 h treatment, read-out: IC50 in AsPC-1 three-dimensional spheroid model
Method: Three-dimensional spheroid cell cultures were produced based on the liquid overlay technique. Agarose solution in RPMI (1.5% w/v) was prepared and sterilized in an autoclave. Then, each well of 96-well flat-bottom plates was coated with 50 µl of agarose solution and was left to solidify at room temperature for at least 2 h. One hundred twenty-five µl of a suspension of AsPC-1 cells in RPMI medium containing 10% FBS at a density of 2 × 10^5 cells/ml was added to each well. Afterwards, the plates were centrifuged at 700g for 5 min and incubated under standard culture conditions. After 48 h of incubation, which allowed one spheroid to be formed in each well, 100 µl of the medium was removed, and spheroids were treated with synthesized derivatives diluted in a fresh medium containing 10% FBS for 72 h.
At the final step, cell viability was measured by the acid phosphatase (APH) assay, which is based on the hydrolysis of the p-nitrophenyl phosphate (pNPP) and its conversion to yellow p-nitrophenol by intracellular acid phosphatases present in viable cells. Briefly, 160 µl of the medium was removed and 200 µl of a solution containing 2 mg/ml pNPP dissolved in 0.1 M sodium acetate at pH 4.8 were added to each well and incubated for 120 min at 37 °C. Afterwards, 10 µl of NaOH 1 M was added to each well to stop the reaction, and the absorbance was recorded at 405 nm within 10 min by a Bio-Tek microplate reader (Model Synergy HTX). The images of spheroids were recorded by a bright field microscope (Nikon model DS-Ri2) and analyzed with Nikon NIS-Elements AR imaging software for Windows version 4.30.

[6] = target: T3, FLT1 (h) (Homo sapiens, UniProt P17948); test: Radiometric kinase panel assay; assay type: biochemical; details: Km ATP
T3 construct: purchased Eurofins Discovery

[7] = target: T4, EGFR (h) (Homo sapiens, UniProt P00533); test: Radiometric kinase panel assay; assay type: biochemical; details: Km ATP
T4 construct: purchased Eurofins Discovery

[8] = target: T5, CDK4/cyclinD3 (h) (Homo sapiens, UniProt P11802); test: Radiometric kinase panel assay; assay type: biochemical; details: Km ATP
T5 construct: purchased Eurofins Discovery

[9] = target: T6, MAPK1 (h) (Homo sapiens, UniProt P27361); test: Radiometric kinase panel assay; assay type: biochemical; details: Km ATP
T6 construct: purchased Eurofins Discovery

[10] = target: T7, RET (h) (Homo sapiens, UniProt P07949); test: Radiometric kinase panel assay; assay type: biochemical; details: Km ATP
T7 construct: purchased Eurofins Discovery

[11] = target: T8, AXL (h) (Homo sapiens, UniProt P30530); test: Radiometric kinase panel assay; assay type: biochemical; details: Km ATP
T8 construct: purchased Eurofins Discovery

[12] = target: T9, FMS (h) (Homo sapiens, UniProt P07333); test: Radiometric kinase panel assay; assay type: biochemical; details: Km ATP
T9 construct: purchased Eurofins Discovery

[13] = target: T10, MAPK2 (m) (Mus musculus, UniProt P63085); test: Radiometric kinase panel assay; assay type: biochemical; details: Km ATP
T10 construct: purchased Eurofins Discovery

[14] = target: T11, PDGFRB (h) (Homo sapiens, UniProt P09619); test: Radiometric kinase panel assay; assay type: biochemical; details: Km ATP
T11 construct: purchased Eurofins Discovery

[15] = target: T12, AKT2 (h) (Homo sapiens, UniProt P31751); test: Radiometric kinase panel assay; assay type: biochemical; details: Km ATP
T12 construct: purchased Eurofins Discovery
T12 sequence (P31751 whole entry): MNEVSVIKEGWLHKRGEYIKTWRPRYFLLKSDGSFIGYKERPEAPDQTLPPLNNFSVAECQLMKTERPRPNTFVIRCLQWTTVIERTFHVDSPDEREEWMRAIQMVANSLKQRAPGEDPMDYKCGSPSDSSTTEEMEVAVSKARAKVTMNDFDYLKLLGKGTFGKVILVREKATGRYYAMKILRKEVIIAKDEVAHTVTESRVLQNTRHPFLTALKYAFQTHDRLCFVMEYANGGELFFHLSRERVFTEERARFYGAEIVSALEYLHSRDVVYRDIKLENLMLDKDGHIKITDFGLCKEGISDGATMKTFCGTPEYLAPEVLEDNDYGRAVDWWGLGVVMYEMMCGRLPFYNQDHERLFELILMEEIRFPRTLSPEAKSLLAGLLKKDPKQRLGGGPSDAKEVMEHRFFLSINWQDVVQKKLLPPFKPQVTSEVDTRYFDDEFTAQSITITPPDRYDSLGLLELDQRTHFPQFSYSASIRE

T2 sequence (P31749 whole entry): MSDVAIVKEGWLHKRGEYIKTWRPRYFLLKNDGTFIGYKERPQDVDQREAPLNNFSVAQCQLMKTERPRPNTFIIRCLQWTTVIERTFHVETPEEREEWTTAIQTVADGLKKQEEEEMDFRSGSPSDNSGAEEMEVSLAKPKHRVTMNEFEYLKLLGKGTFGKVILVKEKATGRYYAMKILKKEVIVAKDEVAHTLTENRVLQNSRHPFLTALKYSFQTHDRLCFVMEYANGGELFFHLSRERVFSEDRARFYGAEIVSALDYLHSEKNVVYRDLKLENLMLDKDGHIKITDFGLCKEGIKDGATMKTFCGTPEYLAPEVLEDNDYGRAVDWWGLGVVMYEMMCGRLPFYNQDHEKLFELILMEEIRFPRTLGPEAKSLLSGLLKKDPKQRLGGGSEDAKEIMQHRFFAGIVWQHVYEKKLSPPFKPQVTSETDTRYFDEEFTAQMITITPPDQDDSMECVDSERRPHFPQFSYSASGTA
T11 sequence (P09619 33-1106): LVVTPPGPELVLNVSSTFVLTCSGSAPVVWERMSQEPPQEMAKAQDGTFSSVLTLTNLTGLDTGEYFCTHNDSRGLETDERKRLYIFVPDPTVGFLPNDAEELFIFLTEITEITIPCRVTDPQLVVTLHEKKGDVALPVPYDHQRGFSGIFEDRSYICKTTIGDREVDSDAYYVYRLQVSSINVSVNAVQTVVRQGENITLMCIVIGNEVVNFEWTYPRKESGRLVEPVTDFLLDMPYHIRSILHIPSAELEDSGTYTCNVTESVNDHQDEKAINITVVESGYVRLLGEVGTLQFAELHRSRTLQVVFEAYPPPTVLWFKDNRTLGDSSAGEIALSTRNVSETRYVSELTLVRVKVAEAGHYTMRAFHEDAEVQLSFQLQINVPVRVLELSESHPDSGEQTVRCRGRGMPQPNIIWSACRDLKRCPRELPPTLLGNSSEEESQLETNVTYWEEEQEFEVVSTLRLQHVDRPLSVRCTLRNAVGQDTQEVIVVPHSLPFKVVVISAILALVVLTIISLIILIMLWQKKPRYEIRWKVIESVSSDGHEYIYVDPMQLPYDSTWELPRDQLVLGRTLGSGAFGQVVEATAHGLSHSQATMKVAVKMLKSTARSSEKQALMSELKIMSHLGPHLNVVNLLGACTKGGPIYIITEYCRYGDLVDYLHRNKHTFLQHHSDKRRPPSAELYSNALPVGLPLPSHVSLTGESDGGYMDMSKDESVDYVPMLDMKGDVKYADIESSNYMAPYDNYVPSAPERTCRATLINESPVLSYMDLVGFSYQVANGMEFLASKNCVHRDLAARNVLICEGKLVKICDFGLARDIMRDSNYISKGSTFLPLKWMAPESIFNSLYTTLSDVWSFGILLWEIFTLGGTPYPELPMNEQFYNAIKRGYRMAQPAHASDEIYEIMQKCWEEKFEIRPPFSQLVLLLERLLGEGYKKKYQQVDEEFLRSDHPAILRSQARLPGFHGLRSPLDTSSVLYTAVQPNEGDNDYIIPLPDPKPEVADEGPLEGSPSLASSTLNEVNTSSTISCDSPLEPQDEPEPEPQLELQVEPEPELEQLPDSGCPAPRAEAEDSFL
T4 sequence (P00533 25-1210): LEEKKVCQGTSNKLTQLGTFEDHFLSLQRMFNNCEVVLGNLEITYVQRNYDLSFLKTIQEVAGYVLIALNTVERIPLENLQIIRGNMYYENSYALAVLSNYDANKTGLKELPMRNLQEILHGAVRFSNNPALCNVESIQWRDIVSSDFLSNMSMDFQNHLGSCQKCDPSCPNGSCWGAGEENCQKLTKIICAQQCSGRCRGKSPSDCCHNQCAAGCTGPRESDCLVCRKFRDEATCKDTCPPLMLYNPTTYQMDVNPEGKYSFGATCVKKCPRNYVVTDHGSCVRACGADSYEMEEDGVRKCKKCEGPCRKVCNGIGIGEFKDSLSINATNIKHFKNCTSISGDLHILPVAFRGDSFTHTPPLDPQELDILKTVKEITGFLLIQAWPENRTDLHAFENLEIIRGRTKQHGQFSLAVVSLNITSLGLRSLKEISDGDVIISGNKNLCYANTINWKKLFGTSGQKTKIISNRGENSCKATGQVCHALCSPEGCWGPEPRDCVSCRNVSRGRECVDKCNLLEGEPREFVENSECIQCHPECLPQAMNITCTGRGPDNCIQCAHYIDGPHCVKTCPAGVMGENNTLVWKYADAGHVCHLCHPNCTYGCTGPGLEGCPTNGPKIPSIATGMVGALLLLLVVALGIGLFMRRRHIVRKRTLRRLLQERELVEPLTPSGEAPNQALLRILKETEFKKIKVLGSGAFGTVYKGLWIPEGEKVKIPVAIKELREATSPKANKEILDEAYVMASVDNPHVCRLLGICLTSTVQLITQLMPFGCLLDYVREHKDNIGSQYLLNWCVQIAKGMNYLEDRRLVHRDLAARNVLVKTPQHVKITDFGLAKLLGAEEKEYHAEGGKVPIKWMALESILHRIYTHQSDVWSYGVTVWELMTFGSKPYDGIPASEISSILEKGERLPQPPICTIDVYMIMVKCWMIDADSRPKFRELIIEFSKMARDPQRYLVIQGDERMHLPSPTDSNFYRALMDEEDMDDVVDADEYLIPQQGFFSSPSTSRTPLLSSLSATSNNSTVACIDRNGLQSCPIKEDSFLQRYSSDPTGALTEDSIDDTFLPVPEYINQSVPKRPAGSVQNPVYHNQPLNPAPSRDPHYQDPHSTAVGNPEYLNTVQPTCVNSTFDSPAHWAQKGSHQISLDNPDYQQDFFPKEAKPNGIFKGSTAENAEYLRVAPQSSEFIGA
T6 sequence (P27361 whole entry): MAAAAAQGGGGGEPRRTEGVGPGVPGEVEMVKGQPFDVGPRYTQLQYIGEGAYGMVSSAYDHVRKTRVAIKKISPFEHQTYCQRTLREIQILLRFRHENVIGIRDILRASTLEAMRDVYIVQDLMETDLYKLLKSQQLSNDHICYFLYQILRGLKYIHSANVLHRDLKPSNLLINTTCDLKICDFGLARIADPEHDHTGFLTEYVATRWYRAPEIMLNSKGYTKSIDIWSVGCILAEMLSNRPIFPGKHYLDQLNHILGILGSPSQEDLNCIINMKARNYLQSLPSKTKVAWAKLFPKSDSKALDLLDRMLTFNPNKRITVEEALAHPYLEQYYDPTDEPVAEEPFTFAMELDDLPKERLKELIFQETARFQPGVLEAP
T10 sequence (P63085 whole entry): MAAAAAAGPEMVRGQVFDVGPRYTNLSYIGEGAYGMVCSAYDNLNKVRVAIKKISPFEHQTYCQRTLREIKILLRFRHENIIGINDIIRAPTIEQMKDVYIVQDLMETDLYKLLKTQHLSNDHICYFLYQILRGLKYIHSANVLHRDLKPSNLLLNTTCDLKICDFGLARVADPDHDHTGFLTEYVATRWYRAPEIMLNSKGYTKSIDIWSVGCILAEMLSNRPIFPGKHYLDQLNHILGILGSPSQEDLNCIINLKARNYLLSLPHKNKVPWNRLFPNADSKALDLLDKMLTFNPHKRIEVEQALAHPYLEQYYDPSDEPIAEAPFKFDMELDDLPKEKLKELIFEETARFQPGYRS
T7 sequence (P07949 29-1114): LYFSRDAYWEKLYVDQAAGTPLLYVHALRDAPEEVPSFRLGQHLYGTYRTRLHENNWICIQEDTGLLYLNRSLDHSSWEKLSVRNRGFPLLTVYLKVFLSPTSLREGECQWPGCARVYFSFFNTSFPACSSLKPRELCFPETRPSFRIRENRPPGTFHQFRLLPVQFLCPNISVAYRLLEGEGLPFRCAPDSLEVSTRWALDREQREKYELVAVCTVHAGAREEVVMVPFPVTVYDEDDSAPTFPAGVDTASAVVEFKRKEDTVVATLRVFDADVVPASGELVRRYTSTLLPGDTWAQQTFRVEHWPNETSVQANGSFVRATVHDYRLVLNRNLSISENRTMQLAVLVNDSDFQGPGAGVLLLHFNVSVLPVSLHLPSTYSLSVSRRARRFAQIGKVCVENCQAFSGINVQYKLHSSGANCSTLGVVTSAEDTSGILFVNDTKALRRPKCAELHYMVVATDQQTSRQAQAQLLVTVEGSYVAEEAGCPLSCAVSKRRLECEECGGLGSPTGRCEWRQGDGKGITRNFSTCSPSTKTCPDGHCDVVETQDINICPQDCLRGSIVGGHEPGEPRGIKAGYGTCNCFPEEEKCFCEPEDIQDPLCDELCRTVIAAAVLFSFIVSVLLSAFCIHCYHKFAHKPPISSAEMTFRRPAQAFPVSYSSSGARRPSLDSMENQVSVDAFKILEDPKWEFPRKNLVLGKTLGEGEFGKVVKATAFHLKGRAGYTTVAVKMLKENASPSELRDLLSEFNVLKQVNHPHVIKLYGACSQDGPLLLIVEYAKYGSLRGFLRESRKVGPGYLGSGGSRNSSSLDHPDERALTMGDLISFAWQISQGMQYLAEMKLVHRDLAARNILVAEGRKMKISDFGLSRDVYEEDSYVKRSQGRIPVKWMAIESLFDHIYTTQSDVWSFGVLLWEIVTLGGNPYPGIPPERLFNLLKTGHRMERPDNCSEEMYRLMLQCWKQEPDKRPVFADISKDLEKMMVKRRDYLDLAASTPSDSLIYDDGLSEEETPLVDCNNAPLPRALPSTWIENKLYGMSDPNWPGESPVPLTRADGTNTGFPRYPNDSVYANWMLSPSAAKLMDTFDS

Cc1ccc(Cn2cc(COc3ccc(C=NNc4ncnc5ccccc45)cc3)nn2)cc1 [Compound 8c, 2-(4-((1-(4-Methylbenzyl)-1H-1,2,3-triazol-4-yl)methoxy)benzylidene)-1-(quinazolin-4-yl)hydrazine]
Late apoptosis [1]: 10.7%
Early apoptosis [1]: 15.5%
Percentage of total apoptosis [1]: 26.1%
inhibition at 10 µM [2]: 3%
Effect on MET phosphorylation [3]: significant suppression of MET phosphorylation
inhibition at 10 µM [4]: 15%
Circularity and solidity of spheroids [5]: significant reduction
IC50 [5]: 32.7 ± 7.2 µM
inhibition at 10 µM [6]: 2%
inhibition at 10 µM [7]: 8%
inhibition at 10 µM [8]: 2%
inhibition at 10 µM [9]: 5%
inhibition at 10 µM [10]: 10%
inhibition at 10 µM [11]: 12%

CC(C)(C)c1ccc(Cn2cc(COc3ccc(C=NNc4ncnc5ccccc45)cc3)nn2)cc1 [Compound 8h, 2-(4-((1-(4-Tert-butylbenzyl)-1H-1,2,3-triazol-4-yl)methoxy)benzylidene)-1-(quinazolin-4-yl)hydrazine]
Late apoptosis [1]: 9.6%
Early apoptosis [1]: 15.8%
Percentage of total apoptosis [1]: 25.4%
inhibition at 10 µM [12]: 0%
inhibition at 10 µM [13]: 7%
melting point: 205.4 °C
inhibition at 10 µM [14]: 7%
inhibition at 10 µM [4]: 26%
Circularity and solidity of spheroids [5]: significant reduction
IC50 [5]: 36.6 ± 4.5 µM
inhibition at 10 µM [15]: 18%
